Data published in patent US6444617B1, “Fused-heterocycle dicarboxylic acid diamide derivatives or salts thereof, herbicide and usage thereof” (Nihon Nohyaku Co., Ltd., priority 1998, dated 2002).

Key:
Assay type in all cases: in vivo
soybean plant (So) = assay: Test Example 3: phytotoxicity to upland crop plants, treatment before emergence; conditions: dosage 5 kg/ha
How it was run: (§1)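 Crop injury to soybean and wheat was judged on a phytotoxicity scale 14 days after a pre-emergence spray of a liquid formulation at a prescribed concentration of compound.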

wheat (Wh) = assay: as above; conditions: dosage 5 kg/ha
How it was run: as §1

wheat = assay: Test Example 4: phytotoxicity to upland crop plants, treatment after emergence; conditions: dosage 5 kg/ha, sprayed after emergence, judged 14 days after treatment
How it was run: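 Seeds sown in soil and covered. Plants raised to specified leaf stages. Agent with test compound at a prescribed concentration sprayed. Herbicidal effect and crop damage scored after 14 days as weed-killing rate.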

soybean plant = assay: as above; conditions: dosage 5 kg/ha, sprayed after emergence, judged 14 days after treatment
How it was run: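 Scores of weed-killing rate, with crop phytotoxicity, come from inspection 14 days after plants in soil vats, grown to specified leaf stages, are sprayed with a formulation holding the compound at a prescribed concentration.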

[1] = test system: bird's eye speedwell (Veronica persica Poir.), Vp; assay: Test Example 3: herbicidal effect on upland weeds before emergence; conditions: dosage 5 kg/ha
How it was run: (§2)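 Test compound, formulated as a liquid at a fixed concentration, is sprayed before weed emergence. Two weeks later, kill rate is derived and herbicidal activity is rated.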

[2] = test system: velvetleaf (Abutilon theophtasti L.), At; assay: as above; conditions: dosage 5 kg/ha
How it was run: as §2

[3] = test system: barnyard grass (Echinochloa crus-galli Beauv.), Ec; assay: as above; conditions: dosage 5 kg/ha
How it was run: as §2

[4] = test system: cocklebur (Xanthium strumarium L.), Xs; assay: as above; conditions: dosage 5 kg/ha
How it was run: as §2

[5] = test system: forxtail grass (Alopecurus aequalis var. amurensis Ohwi), Am; assay: as above; conditions: foxtail grass, dosage 5 kg/ha
How it was run: as §2

[6] = test system: cleavers (Galium aparine L.), Ga; assay: as above; conditions: dosage 5 kg/ha
How it was run: as §2

[7] = test system: bird's eye speedwell (Veronica persica Poir.), Vp; assay: Test Example 4: herbicidal effect on upland weeds after emergence; conditions: dosage 5 kg/ha; sprayed after emergence; judged 14 days after treatment
How it was run: (§3)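 Post-emergence foliar spray at a prescribed concentration, applied once the sown weeds and soybean reached defined leaf stages in soil vats; herbicidal effect and soybean injury scored after 14 days.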

[8] = test system: velvetleaf (Abutilon theophtasti L.), At; assay: as above; conditions: dosage 5 kg/ha; sprayed after emergence; judged 14 days after treatment
How it was run: as §3

[9] = test system: barnyard grass (Echinochloa crus-galli Beauv.), Ec; assay: as above; conditions: dosage 5 kg/ha; sprayed after emergence; judged 14 days after treatment
How it was run: as §3

[10] = test system: cocklebur (Xanthium strumarium L.), Xs; assay: as above; conditions: dosage 5 kg/ha; sprayed after emergence; judged 14 days after treatment
How it was run: as §3

[11] = test system: forxtail grass (Alopecurus aequalis var. amurensis Ohwi), Am; assay: as above; conditions: dosage 5 kg/ha; sprayed after emergence; judged 14 days after treatment
How it was run: as §3

[12] = test system: cleavers (Galium aparine L.), Ga; assay: as above; conditions: dosage 5 kg/ha; sprayed after emergence; judged 14 days after treatment
How it was run: as §3

[13] = test system: barnyard grass (Echinochloa crus-galli Beauv.); assay: Test Example 1: herbicidal effect on paddy field weeds before emergence; conditions: Dosage 5 kg/ha
How it was run: (§4)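 Soil in pots is brought to paddy state and seeded with barnyard grass and bulrush; before germination, the soil receives a predetermined dosage of test compound in solution. After twenty-one days, control rate relative to untreated pots is calculated and graded.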

[14] = test system: bulrush (Scirpus juncoides Roxb.); assay: as above; conditions: Dosage 5 kg/ha
How it was run: as §4

[15] = test system: barnyard grass (Echinochloa crus-galli Beauv.); assay: Test Example 2: herbicidal effect on paddy field weeds after emergence; conditions: Dosage 5 kg/ha; one-leaved stage; 21 days after treatment
How it was run: (§5)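 Weeds were sown in 1/10000 are pots of soil flooded to paddy conditions and grown to the one-leaf stage, then the soil was treated with a solution of compound at a predetermined dosage.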

[16] = test system: monochoria (Monochoria vaginalis Presl); assay: as above; conditions: Dosage 5 kg/ha; one-leaved stage; 21 days after treatment
How it was run: as §5

[17] = test system: bulrush (Scirpus juncoides Roxb.); assay: as above; conditions: Dosage 5 kg/ha; one-leaved stage; 21 days after treatment
How it was run: as §5

| Structure (SMILES) | Phytotoxicity So (soybean plant (So)) | Phytotoxicity Wh (wheat (Wh)) | Phytotoxicity Wh (wheat) | Phytotoxicity So (soybean plant) | Herbicidal effect Vp [1] | Herbicidal effect At [2] | Herbicidal effect Ec [3] | Herbicidal effect Xs [4] | Herbicidal effect Am [5] | Herbicidal effect Ga [6] | Herbicidal effect Vp [7] | Herbicidal effect At [8] | Herbicidal effect Ec [9] | Herbicidal effect Xs [10] | Herbicidal effect Am [11] | Herbicidal effect Ga [12] | Pre-emergence treatment Barnyard grass (herbicidal effect) [13] | Pre-emergence treatment Bulrush (herbicidal effect) [14] | Post-emergence treatment Barnyard grass (herbicidal effect) [15] | Post-emergence treatment Monochoria (herbicidal effect) [16] | other results |
| --- | --- | --- | --- | --- | --- | --- | --- | --- | --- | --- | --- | --- | --- | --- | --- | --- | --- | --- | --- | --- | --- |
| CCCNC(=O)c1nc2cc3c(cc2cc1C(=O)Nc1c(CC)ccc(Cl)c1CC)OCO3 [compound 334] | 0 (Crop-killing rate is 0-20% (No Phytotoxicity).) | 2 (Crop-killing rate is 40-69%.) | 2 (Crop-killing rate is 40-69%.) | 1 (Crop-killing rate is 1-39%.) | 4 (Weed-killing rate is 90-99%.) | 5 (Weed-killing rate is 100%.) | 4 (Weed-killing rate is 90-99%.) | 3 (Weed-killing rate is 70-89%.) | 4 (Weed-killing rate is 90-99%.) | 3 (Weed-killing rate is 70-89%.) | 4 (Weed-killing rate is 90-99%.) | 4 (Weed-killing rate is 90-99%.) | 4 (Weed-killing rate is 90-99%.) | 3 (Weed-killing rate is 70-89%.) | 3 (Weed-killing rate is 70-89%.) | 3 (Weed-killing rate is 70-89%.) | 5 (Weed-killing rate is 100%.) | 4 (Weed-killing rate is 90-99%.) | 4 (Weed-killing rate is 90-99%.) | 5 (Weed-killing rate is 100%.) | Post-emergence treatment Bulrush (herbicidal effect) [17]: 4 (Weed-killing rate is 90-99%.) |
| CCc1ccc(Cl)c(CC)c1NC(=O)c1cc2cc3c(cc2nc1C(=O)NCC(C)C)OCO3 [compound 339] | 0 (Crop-killing rate is 0-20% (No Phytotoxicity).) | 1 (Crop-killing rate is 1-39%.) | 2 (Crop-killing rate is 40-69%.) | 1 (Crop-killing rate is 1-39%.) | 4 (Weed-killing rate is 90-99%.) | 4 (Weed-killing rate is 90-99%.) | 4 (Weed-killing rate is 90-99%.) | 2 (Weed-killing rate is 40-69%.) | 4 (Weed-killing rate is 90-99%.) | 3 (Weed-killing rate is 70-89%.) | 4 (Weed-killing rate is 90-99%.) | 4 (Weed-killing rate is 90-99%.) | 4 (Weed-killing rate is 90-99%.) | 2 (Weed-killing rate is 40-69%.) | 3 (Weed-killing rate is 70-89%.) | 2 (Weed-killing rate is 40-69%.) | 4 (Weed-killing rate is 90-99%.) | 3 (Weed-killing rate is 70-89%.) | 3 (Weed-killing rate is 70-89%.) | 4 (Weed-killing rate is 90-99%.) | Post-emergence treatment Bulrush (herbicidal effect) [17]: 2 (Weed-killing rate is 40-69%.) |
| CCc1ccc(Cl)c(CC)c1NC(=O)c1cc2cc3c(cc2nc1C(=O)NC1CCCC1)OCO3 [compound 343] | 0 (Crop-killing rate is 0-20% (No Phytotoxicity).) | 0 (Crop-killing rate is 0-20% (No Phytotoxicity).) | 0 (Crop-killing rate is 0-20% (No Phytotoxicity).) | 0 (Crop-killing rate is 0-20% (No Phytotoxicity).) | 4 (Weed-killing rate is 90-99%.) | 3 (Weed-killing rate is 70-89%.) | 4 (Weed-killing rate is 90-99%.) | 2 (Weed-killing rate is 40-69%.) | 3 (Weed-killing rate is 70-89%.) | 3 (Weed-killing rate is 70-89%.) | 3 (Weed-killing rate is 70-89%.) | 3 (Weed-killing rate is 70-89%.) | 4 (Weed-killing rate is 90-99%.) | 2 (Weed-killing rate is 40-69%.) | 2 (Weed-killing rate is 40-69%.) | 2 (Weed-killing rate is 40-69%.) | 5 (Weed-killing rate is 100%.) | 3 (Weed-killing rate is 70-89%.) | 3 (Weed-killing rate is 70-89%.) | 5 (Weed-killing rate is 100%.) | Post-emergence treatment Bulrush (herbicidal effect) [17]: 3 (Weed-killing rate is 70-89%.) |
| CCCNC(=O)c1nc2ncccc2cc1C(=O)Nc1c(CC)ccc(Cl)c1CC [compound 361] | 4 (Crop-killing rate is 90-99%.) | 4 (Crop-killing rate is 90-99%.) | 5 (Crop-killing rate is 100%.) | 4 (Crop-killing rate is 90-99%.) | 5 (Weed-killing rate is 100%.) | 5 (Weed-killing rate is 100%.) | 5 (Weed-killing rate is 100%.) | 5 (Weed-killing rate is 100%.) | 5 (Weed-killing rate is 100%.) | 5 (Weed-killing rate is 100%.) | 5 (Weed-killing rate is 100%.) | 5 (Weed-killing rate is 100%.) | 5 (Weed-killing rate is 100%.) | 5 (Weed-killing rate is 100%.) | 5 (Weed-killing rate is 100%.) | 5 (Weed-killing rate is 100%.) | 5 (Weed-killing rate is 100%.) | 5 (Weed-killing rate is 100%.) | 5 (Weed-killing rate is 100%.) | 5 (Weed-killing rate is 100%.) | Post-emergence treatment Bulrush (herbicidal effect) [17]: 5 (Weed-killing rate is 100%.) |
| CCCNC(=O)c1nc2ncccc2cc1C(=O)Nc1cccc(Cl)c1C [compound 375] | 3 (Crop-killing rate is 70-89%.) | 3 (Crop-killing rate is 70-89%.) | 4 (Crop-killing rate is 90-99%.) | 4 (Crop-killing rate is 90-99%.) | 5 (Weed-killing rate is 100%.) | 5 (Weed-killing rate is 100%.) | 5 (Weed-killing rate is 100%.) | 5 (Weed-killing rate is 100%.) | 5 (Weed-killing rate is 100%.) | 5 (Weed-killing rate is 100%.) | 5 (Weed-killing rate is 100%.) | 5 (Weed-killing rate is 100%.) | 5 (Weed-killing rate is 100%.) | 5 (Weed-killing rate is 100%.) | 5 (Weed-killing rate is 100%.) | 5 (Weed-killing rate is 100%.) | 5 (Weed-killing rate is 100%.) | 5 (Weed-killing rate is 100%.) | 5 (Weed-killing rate is 100%.) | 5 (Weed-killing rate is 100%.) | Post-emergence treatment Bulrush (herbicidal effect) [17]: 5 (Weed-killing rate is 100%.) |
